In patent US8143243B2, “Compounds for the treatment of hepatitis C” (Bristol-Myers Squibb Company, priority 2007, dated 2012):

Assays:
HCV NS5B = target: T1, HCV NS5B (Hepatitis C virus genotype 1b, UniProt Q9WMX2); experiment: HCV NS5B RdRp enzyme assay (standard / modified); format: biochemical
T1 construct: The protein was expressed with an 18 amino acid C-terminal truncation to enhance the solubility; made in house; host or cells: E. coli BL21 (DE3)
Method: HCV NS5B RdRp cloning, expression, and purification. The cDNA encoding the NS5B protein of HCV, genotype 1b, was cloned into the pET21a expression vector. The protein was expressed with an 18 amino acid C-terminal truncation to enhance the solubility. The E. coli competent cell line BL21 (DE3) was used for expression of the protein. Cultures were grown at 37° C. for ˜4 hours until the cultures reached an optical density of 2.0 at 600 nm. The cultures were cooled to 20° C. and induced with 1 mM IPTG. Fresh ampicillin was added to a final concentration of 50 μg/ml and the cells were grown overnight at 20° C.
Cell pellets (3 L) were lysed for purification to yield 15-24 mgs of purified NS5B. The lysis buffer consisted of 20 mM Tris-HCl, pH 7.4, 500 mM NaCl, 0.5% triton X-100, 1 mM DTT, 1 mM EDTA, 20% glycerol, 0.5 mg/ml lysozyme, 10 mM MgCl2, 15 ug/ml deoxyribonuclease I, and Complete TM protease inhibitor tablets (Roche). After addition of the lysis buffer, frozen cell pellets were resuspended using a tissue homogenizer. To reduce the viscosity of the sample, aliquots of the lysate were sonicated on ice using a microtip attached to a Branson sonicator. The sonicated lysate was centrifuged at 100,000×g for 1 hr at 4° C. and filtered through a 0.2 μm filter unit (Corning).
The protein was purified using three sequential chromatography steps: Heparin sepharose CL-6B, polyU sepharose 4B, and Hitrap SP sepharose (Pharmacia). The chromatography buffers were identical to the lysis buffer but contained no lysozyme, deoxyribonuclease I, MgCl2 or protease inhibitor and the NaCl concentration of the buffer was adjusted according to the requirements for charging the protein onto the column. Each column was eluted with a NaCl gradient which varied in length from 5-50 column volumes depending on the column type. After the final chromatography step, the resulting purity of the enzyme is >90% based on SDS-PAGE analysis. The enzyme was aliquoted and stored at −80° C.
Standard HCV NS5B RdRp enzyme assay. HCV RdRp genotype 1b assays were run in a final volume of 60 μl in 96 well plates (Costar 3912). The assay buffer is composed of 20 mM Hepes, pH 7.5, 2.5 mM KCl, 2.5 mM MgCl2, 1 mM DTT, 1.6 U RNAse inhibitor (Promega N2515), 0.1 mg/ml BSA (Promega R3961), and 2% glycerol. All compounds were serially diluted (3-fold) in DMSO and diluted further in water such that the final concentration of DMSO in the assay was 2%. HCV RdRp genotype 1b enzyme was used at a final concentration of 28 nM. A polyA template was used at 6 nM, and a biotinylated oligo-dT12 primer was used at 180 nM final concentration. Template was obtained commercially (Amersham 27-4110). Biotinylated primer was prepared by Sigma Genosys. 3H-UTP was used at 0.6 μCi (0.29 μM total UTP). Reactions were initiated by the addition of enzyme, incubated at 30° C. for 60 min, and stopped by adding 25 μl of 50 mM EDTA containing SPA beads (4 μg/μl, Amersham RPNQ 0007). Plates were read on a Packard Top Count NXT after >1 hr incubation at room temperature.
Modified HCV NS5B RdRp enzyme assay. A modified enzyme assay was performed essentially as described for the standard enzyme assay except for the following: The biotinylated oligo dT12 primer was precaptured on streptavidin-coated SPA beads by mixing primer and beads in assay buffer and incubating at room temperature for one hour. Unbound primer was removed after centrifugation. The primer-bound beads were resuspended in 20 mM Hepes buffer, pH 7.5 and used in the assay at final concentrations of 20 nM primer and 0.67 μg/μl beads. Order of addition in the assay: enzyme (14 nM) was added to diluted compound followed by the addition of a mixture of template (0.2 nM), 3H-UTP (0.6 μCi, 0.29 μM), and primer-bound beads, to initiate the reaction; concentrations given are final. Reactions were allowed to proceed for 4 hours at 30° C.
IC50 values for compounds were determined using seven different [I]. […]

HCV replicon cells = experiment: HCV replicon FRET / luciferase assay; format: cell-based; conditions: Hepatitis C virus
Description: FRET Assay Preparation. To perform the HCV FRET screening assay, 96-well cell culture plates were used. The FRET peptide (Anaspec, Inc.) (Taliani et al., Anal. Biochem. 1996, 240, 60-67) contains a fluorescence donor, EDANS, near one end of the peptide and an acceptor, DABCYL, near the other end. The fluorescence of the peptide is quenched by […] resonance energy transfer (RET) between the donor and the acceptor, but as the NS3 protease cleaves the peptide the products are released from RET quenching and the fluorescence of the donor becomes apparent. The assay reagent was made as follows: 5× cell Luciferase cell culture lysis reagent from Promega (#E153A) diluted to 1× with dH2O, NaCl added to 150 mM final, the FRET peptide diluted to 20 μM final from a 2 mM stock.
To prepare plates, HCV replicon cells, with or without a Renilla luciferase reporter gene, were trypsinized and placed into each well of a 96-well plate with titrated test compounds added in columns 3 through 12; columns 1 and 2 contained a control compound (HCV protease inhibitor), and the bottom row contained cells without compound. The plates were then placed in a CO2 incubator at 37° C.
Assays. Subsequent to addition of the test compounds described above (FRET Assay Preparation), at various times the plate was removed and Alamar blue solution (Trek Diagnostics, #00-100) was added per well as a measure of cellular toxicity. After reading in a Cytoflour 4000 instrument (PE Biosystems), plates were rinsed with PBS and then used for FRET assay by the addition of 30 ul of the FRET peptide assay reagent described above (FRET Assay Preparation) per well. The plate was then placed into the Cytoflour 4000 instrument which had been set to 340 excite/490 emission, automatic mode for 20 cycles and the plate read in a kinetic mode. Typically, the signal to noise using an endpoint analysis after the reads was at least three-fold. Alternatively, after Alamar blue reading, plates were rinsed with PBS, 50 ul of DMEM (high glucose) without phenol red was added and plates were then used for luciferase assay using the Promega Dual-Glo Luciferase Assay System.
Compound analysis was determined by quantification of the relative HCV replicon inhibition and the relative cytotoxicity values. To calculate cytoxicity values, the average Alamar Blue fluorescence signals from the control wells were set as 100% non-toxic. The individual signals in each of the compound test wells were then divided by the average control signal and multiplied by 100% to determine […]. To calculate the HCV replicon inhibition values, an average background value was obtained from the two wells containing the highest amount of HCV protease inhibitor at the end of the assay period. These numbers were similar to those obtained from naïve Huh-7 cells.
The background numbers were then subtracted from the average signal obtained from the control wells and this number was used as 100% activity. The individual signals in each of the compound test wells were then divided by the averaged control values after background subtraction and multiplied by 100% to determine percent activity. EC50 values for a protease inhibitor titration were calculated as the concentration which caused a 50% reduction in FRET or luciferase activity. The two numbers generated for the compound plate, percent cytoxicity and percent activity were used to determine compounds of interest for further analysis.

T1 sequence (Q9WMX2 2420-2992): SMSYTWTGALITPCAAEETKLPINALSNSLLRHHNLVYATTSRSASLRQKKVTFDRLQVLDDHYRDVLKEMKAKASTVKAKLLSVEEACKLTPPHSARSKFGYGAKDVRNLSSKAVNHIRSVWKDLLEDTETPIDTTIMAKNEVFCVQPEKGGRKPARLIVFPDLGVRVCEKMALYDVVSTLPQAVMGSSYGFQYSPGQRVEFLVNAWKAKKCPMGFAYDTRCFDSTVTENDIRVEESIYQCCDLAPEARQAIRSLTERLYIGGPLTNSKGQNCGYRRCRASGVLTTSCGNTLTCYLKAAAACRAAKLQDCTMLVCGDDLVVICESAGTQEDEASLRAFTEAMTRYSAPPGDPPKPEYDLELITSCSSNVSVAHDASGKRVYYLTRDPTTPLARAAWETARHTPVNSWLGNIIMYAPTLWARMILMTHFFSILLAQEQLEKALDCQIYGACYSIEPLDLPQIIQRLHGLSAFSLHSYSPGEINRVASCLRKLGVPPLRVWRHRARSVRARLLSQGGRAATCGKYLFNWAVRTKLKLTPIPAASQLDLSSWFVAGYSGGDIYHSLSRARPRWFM

SMILES | IC50 (HCV NS5B) [nM] | EC50 (HCV replicon cells) [nM]
COc1ccc2c(c1)C=C(c1c(C(=O)N3C4CCC3CN(C)C4)cnn1C)Cn1c-2c(C2CCCCC2)c2ccc(C(=O)NS(=O)(=O)N(C)C)cc21 | 1 to 500 | 1 to 500
COc1ccc2c(c1)C=C(c1c(C(=O)N3C4CCC3CN(C)C4)cnn1C)Cn1c-2c(C2CCCCC2)c2ccc(C(=O)O)cc21 | > 500 | 1 to 500
COc1ccc2c(c1)C=C(c1c(C(=O)N3[C@@H]4CC[C@H]3C[C@@](C)(O)C4)cnn1C)Cn1c-2c(C2CCCCC2)c2ccc(C(=O)NS(=O)(=O)N3CCOCC3)cc21 | 1 to 500 | 1 to 500
COc1ccc2c(c1)C=C(c1c(C(=O)N3C4COCC3COC4)cnn1C)Cn1c-2c(C2CCCCC2)c2ccc(C(=O)NS(=O)(=O)N3CCOCC3)cc21 | 1 to 500 | 1 to 500
COc1ccc2c(c1)C=C(c1c(C(=O)N3C4CCC3CC4)cnn1C)Cn1c-2c(C2CCCCC2)c2ccc(C(=O)NS(=O)(=O)C(C)C)cc21 | – | 1 to 500
COc1ccc2c(c1)C=C(c1c(C(=O)N3[C@@H]4CC[C@H]3C[C@@](C)(O)C4)cnn1C)Cn1c-2c(C2CCCCC2)c2ccc(C(=O)NS(=O)(=O)C(C)C)cc21 | 1 to 500 | 1 to 500
COc1ccc2c(c1)C=C(c1c(C(=O)N3C4COCC3COC4)cnn1C)Cn1c-2c(C2CCCCC2)c2ccc(C(=O)NS(=O)(=O)C(C)C)cc21 | 1 to 500 | 1 to 500
COc1ccc2c(c1)C=C(c1c(C(=O)N3C4CCC3CN(C)C4)cnn1C)Cn1c-2c(C2CCCCC2)c2ccc(C(=O)NS(=O)(=O)C(C)C)cc21 | 1 to 500 | 1 to 500
COc1ccc2c(c1)C=C(c1c(C(=O)N3CC4CCC(C3)N4C)cnn1C)Cn1c-2c(C2CCCCC2)c2ccc(C(=O)NS(=O)(=O)C(C)C)cc21 | 1 to 500 | 1 to 500
CCC(C)S(=O)(=O)NC(=O)c1ccc2c(C3CCCCC3)c3n(c2c1)CC(c1c(C(=O)N2C4CCC2CN(C)C4)cnn1C)=Cc1cc(OC)ccc1-3 (stereo not shown) | 1 to 500 | 1 to 500
CCC(C)S(=O)(=O)NC(=O)c1ccc2c(C3CCCCC3)c3n(c2c1)CC(c1c(C(=O)N2C4CCCC2COC4)cnn1C)=Cc1cc(OC)ccc1-3 (stereo not shown) | 1 to 500 | 1 to 500
CCC(C)S(=O)(=O)NC(=O)c1ccc2c(C3CCCCC3)c3n(c2c1)CC(c1c(C(=O)N2C4COCC2COC4)cnn1C)=Cc1cc(OC)ccc1-3 (stereo not shown) | 1 to 500 | 1 to 500
COc1ccc2c(c1)C=C(c1c(C(=O)N3C4COCC3COC4)cnn1C)Cn1c-2c(C2CCCCC2)c2ccc(C(=O)NS(=O)(=O)C3CCCC3)cc21 | 1 to 500 | 1 to 500
COc1ccc2c(c1)C=C(c1c(C(=O)N3C4CCC3CN(C)C4)cnn1C)Cn1c-2c(C2CCCCC2)c2ccc(C(=O)NS(=O)(=O)C3CCCC3)cc21 | 1 to 500 | 1 to 500
COc1ccc2c(c1)C=C(c1c(C(=O)N3C4CCC3CN(C)C4)cnn1C)Cn1c-2c(C2CCCCC2)c2ccc(C(=O)NS(=O)(=O)CC(C)C)cc21 | 1 to 500 | 1 to 500
COc1ccc2c(c1)C=C(c1c(C(=O)N3C4CCCC3COC4)cnn1C)Cn1c-2c(C2CCCCC2)c2ccc(C(=O)NS(=O)(=O)CC(C)C)cc21 | 1 to 500 | 1 to 500
CCn1ncc(C(=O)N2C3CCC2CN(C)C3)c1C1=Cc2cc(OC)ccc2-c2c(C3CCCCC3)c3ccc(C(=O)NS(=O)(=O)C(C)C)cc3n2C1 | – | 1 to 500
COc1ccc2c(c1)C=C(c1c(C(=O)N3C4COCC3COC4)cnn1CC(F)(F)F)Cn1c-2c(C2CCCCC2)c2ccc(C(=O)NS(=O)(=O)C(C)C)cc21 | – | 1 to 500
COc1ccc2c(c1)C=C(c1c(C(=O)N3C4CCCC3COC4)cnn1C(C)C)Cn1c-2c(C2CCCCC2)c2ccc(C(=O)NS(=O)(=O)C(C)C)cc21 | – | 1 to 500
COc1ccc2c(c1)C=C(c1c(C(=O)N3C4CCC3CN(C)C4)c(C)nn1C(C)C)Cn1c-2c(C2CCCCC2)c2ccc(C(=O)NS(=O)(=O)C(C)C)cc21 | – | 1 to 500
CCn1nc(C)c(C(=O)N2C3CCC2CN(C)C3)c1C1=Cc2cc(OC)ccc2-c2c(C3CCCCC3)c3ccc(C(=O)NS(=O)(=O)C(C)C)cc3n2C1 | – | 1 to 500
CCn1ncc(C(=O)N2CC3CCC(C2)N3C)c1C1=Cc2cc(OC)ccc2-c2c(C3CCCCC3)c3ccc(C(=O)NS(=O)(=O)C(C)C)cc3n2C1 | – | 1 to 500
CCn1nc(C)c(C(=O)N2C3CCCC2COC3)c1C1=Cc2cc(OC)ccc2-c2c(C3CCCCC3)c3ccc(C(=O)NS(=O)(=O)C(C)C)cc3n2C1 | – | 1 to 500
COc1ccc2c(c1)C=C(c1c(C(=O)N3C4CCC3CN(C)C4)ncn1C(C)C)Cn1c-2c(C2CCCCC2)c2ccc(C(=O)NS(=O)(=O)C(C)C)cc21 | – | 1 to 500
COc1ccc2c(c1)C=C(c1c(C(=O)N3C4CCC3CN(C)C4)nnn1C(C)C)Cn1c-2c(C2CCCCC2)c2ccc(C(=O)NS(=O)(=O)N(C)C)cc21 | – | 1 to 500
